For one data set, the system named is Hh pathway (Gli-RE reporter, activated by SMO agonist SAG). Description: Gli-luciferase reporter assay in SAG-treated NIH 3T3 Shh-light II cells. It counts as cell-based. To be noted: Mus musculus, moderately active class. In general terms: In a reporter assay the amount or activity of a reporter protein is the signal.
The term inhibition denotes the change of the read-out against control, counted positive when it falls. Take `CC(C)=CCc1c2c(c(O)c3c(=O)c(-c4ccc(O)c(O)c4)coc13)C=CC(C)(C)O2` [Auriculasin]: the inhibition at 30 µM is ≤ 30%.

System in the next data set: not given
Experiment: not given
Conditions: not given
As a reminder, the melting point is the temperature of the solid-liquid transition. Regarding `COc1cc(OC)c2c(=O)c(-c3ccc(OCC=C(C)C)c(OC)c3)coc2c1` [NT12, 5,7-Dimethoxy-3-[3′-methoxy-4′-(3-methyl-but-2-enyloxy)-phenyl]-chromen-4-one], the melting point was in the range of 130.7 to 131.8 °C.
The compound `COc1cc(OC)c2c(=O)c(-c3ccc(OCc4ccccc4)c(OC)c3)coc2c1` [NT13, 3-(4-Benzyloxy-3-methoxy-phenyl)-5,7-dimethoxy-chromen-4-one] displayed a melting point of 142.8 to 143.7 °C.
For `COc1cc(OC)c2c(=O)c(-c3ccc(OCc4ccc(C(F)(F)F)cc4)c(OC)c3)coc2c1` [NT15, 5,7-Dimethoxy-3-[3-methoxy-4-(4-trifluoromethyl-benzyloxy)-phenyl]-chromen-4-one], the melting point lay in the range of 128.4 to 130.2 °C.
`COc1cc(OC)c2c(=O)c(-c3ccc(OC)c(OCc4ccccc4)c3)coc2c1` [NT9, 3-(3′-Benzyloxy-4′-methoxyphenyl)-5,7-dimethoxy-4H-chromen-4-one] showed a melting point of 126 °C.
In the case of `COc1cc(OC)c2c(=O)c(-c3ccc(OC)c(OCc4ccc(C(F)(F)F)cc4)c3)coc2c1` [NT11, 5,7-Dimethoxy-3-[4-methoxy-3-(4-trifluoromethyl-benzyloxy)-phenyl]-chromen-4-one], the melting point was 128.6 to 129.1 °C.

For a further data set, the target named is SMO heptahelical domain (Homo sapiens, UniProt Q99835).
Sequence of SMO heptahelical domain (Q99835 28-787): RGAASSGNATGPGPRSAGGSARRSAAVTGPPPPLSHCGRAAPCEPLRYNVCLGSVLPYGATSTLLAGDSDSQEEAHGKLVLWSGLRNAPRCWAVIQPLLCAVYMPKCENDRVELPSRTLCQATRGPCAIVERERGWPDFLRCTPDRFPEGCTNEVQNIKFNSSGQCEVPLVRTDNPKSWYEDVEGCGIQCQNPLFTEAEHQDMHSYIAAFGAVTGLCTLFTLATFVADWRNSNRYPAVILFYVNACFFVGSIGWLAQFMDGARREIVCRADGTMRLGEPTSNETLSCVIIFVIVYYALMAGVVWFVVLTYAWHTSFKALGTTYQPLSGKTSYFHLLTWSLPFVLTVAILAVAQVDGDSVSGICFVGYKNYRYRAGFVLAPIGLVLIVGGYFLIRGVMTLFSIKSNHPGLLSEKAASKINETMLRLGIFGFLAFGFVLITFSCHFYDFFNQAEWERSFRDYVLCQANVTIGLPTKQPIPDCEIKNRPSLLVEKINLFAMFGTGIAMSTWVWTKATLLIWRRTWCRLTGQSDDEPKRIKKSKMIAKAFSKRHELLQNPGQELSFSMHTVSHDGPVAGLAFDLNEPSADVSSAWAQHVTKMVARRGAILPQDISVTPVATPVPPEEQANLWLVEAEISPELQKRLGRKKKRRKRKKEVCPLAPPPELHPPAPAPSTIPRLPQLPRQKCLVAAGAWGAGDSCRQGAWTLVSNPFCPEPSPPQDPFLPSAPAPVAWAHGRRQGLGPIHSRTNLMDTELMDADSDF
Experiment: not given
To be noted: cited from earlier work.
Usually Kd stands for the free concentration of one partner at which half of the binding sites on the other are occupied at equilibrium, for simple one-to-one binding. As to `CNC1CCC(N(Cc2cccc(-c3ccncc3)c2)C(=O)c2sc3ccccc3c2Cl)CC1` (stereo not drawn) [SAG], the Kd was 59 nM.

For the next data set, the system named is Hh pathway (Gli-RE reporter, activated by SMO agonist SAG). Put plainly: Gli-luciferase reporter assay in SAG-treated NIH 3T3 Shh-light II cells. In kind it is cell-based. To be noted: 5 μM, Shh Light II cells, preliminary results. As to the method: FIG. 4. Effect of active natural compounds identified by the pharmacophore screening in a luciferase assay, where the gene reporter was Gli1 and the pathway was activated by the SAG molecule, a potent SMO agonist. Natural compounds were tested at three different concentrations (1, 10 and 20 μM) and their activity was compared to that of cyclopamine, the natural compound reference inhibitor of the Hedgehog pathway, which was tested at the same doses (1, 10 and 20 μM). On both graphs the activity of cyclopamine is reported as reference standard. (A) cyclopamine, 2,4,5,3′,4′-penta-Ome chalcone and Auriculasin; (B) cyclopamine, Martinoside, Jaceidin, 2,4,5,3′,4′-penta-Ome chalcone, 3,4-di-MDO-2′,4′,5′-tri-Ome dihydrochalcone.
FIG. 6. Dose-response curve of Glabrescione B in SAG (Smoothened Agonist, 200 nM) treated NIH 3T3 Shh-light II (Shh-LII) cells. Treatment time was 48 h and normalization was against Renilla luciferase. Shown is the fold increase of Hh reporter activity compared with cells not treated with SAG.
FIG. 19. Effect of derivatives NT8, NT9, NT10, NT11, NT12, NT13, NT14 and NT15 on the Hedgehog pathway, measured at 5 μM dose in a luciferase assay where the gene reporter was Gli1 and the pathway was activated by the SAG molecule, a potent SMO agonist. […]
To investigate the inhibitory properties of Glabrescione B on Hh signaling, the inventors examined its effects in NIH 3T3 Shh-light II (Shh-LII) cells stably incorporating an Hh-responsive (Gli-RE) reporter, in which induction of the pathway occurs following treatment with the SMO agonist SAG. […] The IC50 in this assay was 0.8 μM.
The ability of Glabrescione B to suppress Hh signaling was assessed in a cellular context of Hh pathway induction. To this end, the antagonist properties of Glabrescione B were determined in Shh Light II (ATCC, cat. # CRL-2795), a murine fibroblast NIH 3T3 cell line. These cells, stably incorporating the Gli-luc reporter and the pRL-TK Renilla reniformis (as described in Taipale, Chen et al. 2000) are a standard tool used to assay Hh pathway activity. The cells that reached the confluence were treated for 48 h with the SMO agonist SAG (200 nM, Alexis, cat. #ALX-270-426-M001) in absence or in presence of Glabrescione B at the amount indicated in FIG. 6. […] Control cells were treated with only DMSO (0.5%, SERVA, cat. #39757.02) Determination of luciferase activities was carried out using the Dual-Luciferase assay according to manufacturer's instructions (Dual-Luciferase® Reporter assay system; Promega, cat. # E1980). All presented data are firefly luciferase activity reported to the Renilla control activity. […] IC50 of 0.8 μM, represents the concentration of Glabrescione B necessary to have fifty percent of inhibition.
Evaluation of the Hh inhibitory activity of these molecules at 5 μM was preliminarily conducted in vitro on Shh Light II cells (see example 2).
Consider `COc1cc(OC)c2c(=O)c(-c3ccc(OC)c(OCc4ccccc4)c3)coc2c1` [NT9, 3-(3′-Benzyloxy-4′-methoxyphenyl)-5,7-dimethoxy-4H-chromen-4-one], for which the “Hh inhibitory activity compared with Glabrescione B” value was “more potent than Glabrescione B”.
For `COc1cc(OC)c2c(=O)c(-c3ccc(OC)c(OCC=C(C)C)c3)coc2c1` [NT8, 3-[3′-(3-methyl-but-2-enyloxy)-4′-methoxyphenyl]-5,7-dimethoxy-4H-chromen-4-one], the “Hh inhibitory activity compared with Glabrescione B” value was “more potent than Glabrescione B”.

Still in this data set, the particulars now being: Gli1 gene reporter, pathway activated by SAG; cyclopamine as reference.
`COc1cc(OC)c(OC)cc1C=CC(=O)c1ccc(OC)c(OC)c1` [2,4,5,3′,4′-penta-OMe Chalcone]: the “effect on Hh pathway in luciferase assay” value was “inhibit the Hh pathway”.
The same measure, in the same setting: to `COc1ccc(CCO[C@@H]2O[C@H](CO)[C@@H](OC(=O)/C=C/c3ccc(O)c(OC)c3)[C@H](O[C@@H]3O[C@@H](C)[C@H](O)[C@@H](O)[C@H]3O)[C@H]2O)cc1O` [Martinoside] belongs “inhibit the Hh pathway”; to `COc1ccc(C(=O)C=Cc2c(OC)cc(OC)c(OC)c2OC)cc1OC` [2,3,4,6,3′,4′-hexa-OMe Chalcone], “inhibit the Hh pathway”.
Turning to `CC(C)=CCc1c2c(c(O)c3c(=O)c(-c4ccc(O)c(O)c4)coc13)C=CC(C)(C)O2` [Auriculasin], the “effect on Hh pathway in luciferase assay” value is given as “inhibit the Hh pathway”.
For the compound `COc1cc(-c2oc3cc(O)c(OC)c(O)c3c(=O)c2OC)ccc1O` [Jaceidin], the “effect on Hh pathway in luciferase assay” value was “inhibit the Hh pathway”.
Take `COc1cc(OC)c(C(=O)CCc2ccc3c(c2)OCO3)cc1OC` [3,4-di-MDO-2′,4′,5′-tri-OMe dihydrochalcone]: the “effect on Hh pathway in luciferase assay” value is recorded as “inhibit the Hh pathway”.

Staying with this data set, now noted: pharmacophore screening hits.
`COc1ccc([C@@H]2CC(=O)c3c(O)cc(O[C@@H]4O[C@H](CO[C@@H]5O[C@@H](C)[C@H](O)[C@@H](O)[C@H]5O)[C@@H](O)[C@H](O)[C@H]4O)cc3O2)cc1O` [Hesperidin]: the “activity as Hh inhibitor in luciferase assay (classification)” value (“activity as Hh inhibitor” below) was “not active”.
With `O=c1c(O)c(-c2cc(O)c(O)c(O)c2)oc2cc(O)cc(O)c12` [Myricetin], the “activity as Hh inhibitor” value was “not active”.
Same read-out and setting: the same measure for `C[C@@H]1CC[C@]2(C(=O)O)CC[C@]3(C)C(=CC[C@@H]4[C@@]5(C)CC[C@@H](O)[C@](C)(CO)[C@@H]5CC[C@]43C)[C@@H]2[C@]1(C)O` [Barbinervic Acid]: “not active”; for Veratrin: “not active”.
On to `CC1=CC2c3c(O)cc(/C=C/c4ccc(O)cc4O)cc3OC3(c4ccc(O)c5c4OC(C)(C)C=C5)Oc4cc(O)ccc4C(C1)C23` (stereo not drawn) [Sorocein-A], for which the “activity as Hh inhibitor” value is reported as “not active”.
Regarding `CC1=CC2c3c(ccc(C(=O)/C=C/c4ccc(O)cc4O)c3O)OC3(c4ccc(O)c5c4OC(C)(C)C=C5)Oc4cc(O)ccc4C(C1)C23` (stereo not drawn) [Sorocein-B], the “activity as Hh inhibitor” value is “not active”.
Same read-out and setting: to Isosophoranon belongs “not active”; to `C[C@@H]1O[C@@H](O[C@H]2[C@H](Oc3cc(O)c4c(c3)O[C@H](c3ccc(O)cc3)CC4=O)O[C@H](CO)[C@@H](O)[C@@H]2O)[C@H](O)[C@H](O)[C@H]1O` [Naringin], “not active”; to `CC(C)=CCc1c(O)ccc(C(=O)C2C(c3c(O)cc(/C=C/c4ccc(O)cc4O)cc3O)C=C(C)CC2c2ccc(O)cc2O)c1O` (stereo not drawn) [Kuwanol-E], “not active”.

Source of the values: US10093642B2, “Multitarget hedgehog pathway inhibitors and uses thereof” (UNIVERSITA' DEGLI STUDI DI SIENA, priority 2013, dated 2018).
